Patent US11319298B2 (Merck Sharp & Dohme Corp., priority 2016, dated 2022)

Target: T1, human M4 muscarinic acetylcholine receptor (Homo sapiens, UniProt P08173)
T1 construct: expressed in transfected cells; host or cells: CHO-K1
T1 sequence (P08173 1-479): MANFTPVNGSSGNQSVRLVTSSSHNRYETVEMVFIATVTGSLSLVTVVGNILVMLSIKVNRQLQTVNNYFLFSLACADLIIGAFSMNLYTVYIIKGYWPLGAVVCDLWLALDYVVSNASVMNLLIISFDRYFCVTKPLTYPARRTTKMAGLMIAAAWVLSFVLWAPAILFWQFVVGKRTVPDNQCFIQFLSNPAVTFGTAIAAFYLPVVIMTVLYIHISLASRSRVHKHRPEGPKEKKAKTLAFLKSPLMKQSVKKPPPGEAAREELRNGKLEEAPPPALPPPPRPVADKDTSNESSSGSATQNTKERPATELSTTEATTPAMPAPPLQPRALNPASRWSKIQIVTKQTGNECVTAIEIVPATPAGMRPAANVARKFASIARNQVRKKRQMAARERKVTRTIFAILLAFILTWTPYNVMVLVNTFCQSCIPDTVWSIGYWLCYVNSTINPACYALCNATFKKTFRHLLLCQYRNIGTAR
Test: human FLIPR-based M4 PAM assay, CHO-K1 cells stably transfected with human M4 receptor and chimeric G-protein Gαqi5
Assay type: cell-based
Conditions: inflection point (IP) of dose response curve; acetylcholine added at 20% of maximum response; CHO-K1 human M4/Gαqi5, FLIPR Tetra
Method in brief: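 The FLIPR read recorded 4 min after compound was added across a concentration range, then 3.5 min after acetylcholine giving 20% of its maximal response, with an occasional extra EC70 addition. Cells were dye-loaded for about 1 h at 37 °C. Potency is the curve inflection point from a four-parameter logistic fit.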

Compound	EC50 [nM]
COc1ccc(O[C@@H]2CCN(c3nnc(C(=O)NCc4ccncc4)cc3C)C[C@@H]2F)cn1 [Example 125, 6-{(3S,4R)-3-fluoro-4-[(6-methoxypyridin-3-yl)oxy]piperidin-1-yl}-5-methyl-N-(pyridin-4-ylmethyl)pyridazine-3-carboxamide]	102
COc1ccc(OC2CCN(c3nnc(C(=O)Nc4cccnc4)cc3C)CC2)cn1 [Example 137, 6-{4-[(6-methoxypyridin-3-yl)oxy]piperidin-1-yl}-5-methyl-N-pyridin-3-ylpyridazine-3-carboxamide]	175
COc1ccc(OC2CCN(c3nnc(C(=O)N[C@@H]4CCc5ccncc5C4)cc3C)CC2)cn1 (single isomer, unassigned) [Example 107A]	182
Cc1c(-c2ccc3c(=O)nc[nH]c3c2)ncnc1N1CCC(Oc2cccc(C#N)c2)CC1 [Example 253, 3-((1-(5-methyl-6-(4-oxo-1,4-dihydroquinazolin-7-yl)pyrimidin-4-yl)piperidin-4-yl)oxy)benzonitrile]	1740
Cc1cc(C(=O)NCc2ccncc2)nnc1N1CCC(Oc2ccccc2)CC1 [Example 114, 5-methyl-6-(4-phenoxypiperidin-1-yl)-N-(pyridin-4-ylmethyl)pyridazine-3-carboxamide]	53
Cc1c(Cl)nc(CO)nc1N1CCC(Oc2ccc3nonc3c2)CC1 [Example 5, (4-(4-(benzo[c][1,2,5]oxadiazol-5-yloxy)piperidin-1-yl)-6-chloro-5-methylpyrimidin-2-yl)methanol]	766
COc1ccc(OC2CCN(c3nc(C(=O)NC(C)C)nc(Cl)c3C)CC2)cn1 [Example 213, 4-chloro-N-isopropyl-6-(4-((6-methoxypyridin-3-yl)oxy)piperidin-1-yl)-5-methylpyrimidine-2-carboxamide]	729
Cc1c(Cl)nc(CO)nc1N1CCC(Oc2ccc3c(c2)CCCN3)CC1 [Example 93, (4-chloro-5-methyl-6-(4-((1,2,3,4-tetrahydroquinolin-6-yl)oxy)piperidin-1-yl)pyrimidin-2-yl)methanol]	33
COc1ccc(OC2CCN(c3nc(C)ncc3C)CC2)cc1 [Example 69, 4-(4-(4-methoxyphenoxy)piperidin-1-yl)-2,5-dimethylpyrimidine]	126
COc1ccc(OC2CCN(c3nnc(C(=O)NC4Cc5ccccc5C4)cc3C)CC2)cn1 [Example 177, N-(2,3-dihydro-1H-inden-2-yl)-6-{4-[(6-methoxypyridin-3-yl)oxy]piperidin-1-yl}-5-methylpyridazine-3-carboxamide]	693
COc1ccc(OC2CCN(c3nnc(C(=O)N4CCc5snc(-c6cccnc6)c5C4)cc3C)CC2)cn1 [Example 203, 5-[(6-{4-[(6-methoxypyridin-3-yl)oxy]piperidin-1-yl}-5-methylpyridazin-3-yl)carbonyl]-3-pyridin-3-yl-4,5,6,7-tetrahydroisothiazolo[4,5-c]pyridine]	504
Cc1c(Cl)nc(CO)nc1N1CCC(Oc2cccc(S(C)(=O)=O)c2)CC1 [Example 42, (4-chloro-5-methyl-6-(4-(3-(methylsulfonyl)phenoxy)piepridin-1-yl)pyrimidin-2-yl)methanol]	325
Cc1c(Cl)nc(CO)nc1N1CCC(Oc2cccc(C#N)c2)CC1 [Example 51, 3-((1-(6-chloro-2-(hydroxymethyl)-5-methylpyrimidin-4-yl)piperidin-4-yl)oxy)benzonitrile]	51
Cc1c(Cl)nc(CO)nc1N1CCC(Oc2ccc3c(c2)OCCN3)CC1 [Example 96, (4-Chloro-6-(4-((3,4-dihydro-2H-benzo[b][1,4]oxazin-7-yl)oxy)piperidin-1-yl)-5-methylpyrimidin-2-yl)methanol]	37
Cc1nc2ccc(OC3CCN(c4nnc(C(=O)NC5C6CC5C6)cc4C)CC3)cc2o1 (stereo not shown) [Example 148, N-bicyclo[1.1.1]pent-2-yl-5-methyl-6-{4-[(2-methyl-1,3-benzoxazol-6-yl)oxy]piperidin-1-yl}pyridazine-3-carboxamide]	221
COc1ccc(OC2CCN(c3nc(O)nc(Cl)c3C)CC2)cn1 [Example 235, 4-chloro-6-(4-((6-methoxypyridin-3-yl)oxy)piperidin-1-yl)-5-methylpyrimidin-2-ol]	248
COc1ccc(OC2CCN(c3nc(S(C)(=O)=O)nc(Cl)c3C)CC2)cc1 [Example 73, 4-chloro-6-(4-(4-methoxyphenoxy)piperidin-1-yl)-5-methyl-2-(methylsulfonyl)pyrimidine]	141

Compound	EC50 [nM]
COc1ccc(OC2CCN(c3nnc(C(=O)NCCn4ccnn4)cc3C)CC2)cn1 [Example 142, 6-{4-[(6-methoxypyridin-3-yl)oxy]piperidin-1-yl}-5-methyl-N-[2-(1H-1,2,3-triazol-1-yl)ethyl]pyridazine-3-carboxamide]	185
COc1ccc(OC2CCN(c3ncnc(C)c3C)CC2)cn1 [Example 242, 4-(4-((6-methoxypyridin-3-yl)oxy)piperidin-1-yl)-5,6-dimethylpyrimidine]	143
Cc1cc(C(=O)N[C@@H]2CCc3ncccc3C2)nnc1N1CCC(Oc2cccc(C#N)c2)CC1 [Example 130B, (R)-6-[4-(3-cyanophenoxy)piperidin-1-yl]-5-methyl-N-(5,6,7,8-tetrahydroquinolin-6-yl)pyridazine-3-carboxamide]	254
Cc1c(Cl)nc(CO)nc1N1CCC(Oc2ccc3c(c2)COC3)CC1 [Example 94, (4-chloro-6-(4-((1,3-dihydroisobenzofuran-5-yl)oxy)piperidin-1-yl)-5-methylpyrimidin-2-yl)methanol]	34
COc1ccc(OC2CCN(c3nnc(C(=O)NCc4ccn(C)n4)cc3C)CC2)cn1 [Example 134, 6-{4-[(6-methoxypyridin-3-yl)oxy]piperidin-1-yl}-5-methyl-N-[(1-methyl-1H-pyrazol-3-yl)methyl]pyridazine-3-carboxamide]	151
CCCCc1ncnc(N2CCC(Oc3ccc(OC)nc3)CC2)c1C [Example 256, 4-butyl-6-(4-((6-methoxypyridin-3-yl)oxy)piperidin-1-yl)-5-methylpyrimidine]	2630
Cc1cc(C(=O)NC2CCc3cccnc3C2)nnc1N1CCC(OCC2CC2)CC1 (stereo not shown) [Example 144, 6-[4-(cyclopropylmethoxy)piperidin-1-yl]-5-methyl-N-(5,6,7,8-tetrahydroquinolin-7-yl)pyridazine-3-carboxamide]	193
Cc1c(Cl)nc(CO)nc1N1CCC(Oc2cccc(C#N)c2)C(F)(F)C1 (stereo not shown) [Example 23, 3-((1-(6-chloro-2-(hydroxymethyl)-5-methylpyrimidin-4-yl)-3,3-difluoropiperidin-4-yl)oxy)benzonitrile]	75
COC(=O)Cc1c(Cl)ncnc1N1CCC(Oc2ccc(OC)cc2)CC1 [Example 17, methyl 2-(4-chloro-6-(4-(4-methoxyphenoxy)piperidin-1-yl)pyrimidin-5-yl)acetate]	2670
COc1ccc(OC2CCN(c3ncnc(-c4cccnc4)c3C)CC2)cn1 [Example 251, 4-(4-((6-methoxypyridin-3-yl)oxy)piperidin-1-yl)-5-methyl-6-(pyridin-3-yl)pyrimidine]	1440
COc1ccc(O[C@@H]2CCN(c3nnc(C(=O)N[C@@H]4CCc5ncccc5C4)cc3C)C[C@@H]2F)cn1 [Example 138B, 6-((3S,4R)-3-fluoro-4-((6-methoxypyridin-3-yl)oxy)piperidin-1-yl)-5-methyl-N-((R)-5,6,7,8-tetrahydroquinolin-6-yl)pyridazine-3-carboxamide]	243
COc1ccc(OC2CCN(c3nnc(C(=O)N[C@@H]4CCCc5ccccc54)cc3C)CC2)cn1 [Example 187, 6-{4-[(6-methoxypyridin-3-yl)oxy]piperidin-1-yl}-5-methyl-N-[(1R)-1,2,3,4-tetrahydronaphthalen-1-yl]pyridazine-3-carboxamide]	1330
COc1ccc(OC2CCN(c3nc(C(=O)NC45CC(C4)C5)nc(Cl)c3C)CC2)cn1 [Example 210, N-(bicyclo[1.1.1]pentan-1-yl)-4-chloro-6-(4-((6-methoxypyridin-3-yl)oxy)piperidin-1-yl)-5-methylpyrimidine-2-carboxamide]	592
COc1ccc(OC2CCN(c3nnc(C(=O)NCCc4cn[nH]c4)cc3C)CC2)cn1 [Example 123, 6-{4-[(6-methoxypyridin-3-yl)oxy]piperidin-1-yl}-5-methyl-N-[2-(1H-pyrazol-4-yl)ethyl]pyridazine-3-carboxamide]	101
COc1ccc(OC2CCN(c3ncnc(Cl)c3C)CC2)cc1 [Example 57, 4-chloro-6-(4-(4-methoxyphenoxy)piperidin-1-yl)-5-methypyrimidine]	61
Cc1c(Cl)nc(CO)nc1N1CCC(Oc2ccc3c(c2)C(=O)N(C)C3)CC1 [Example 33, 6-((1-(6-chloro-2-(hydroxymethyl)-5-methypyrimidin-4-yl)piperidin-4-yl)oxy)-2-methylisoindolin-1-one]	210
6-((1-(6-chloro-2-(hydroxymethyl)-5-methylpyrimidin-4-yl)piperidin-4-yl)oxy)-2-cyclopropylisoindolin-1-one [Example 32]	185
